No end group written: not given here.
What was measured:
P. berghei = P. berghei infections in Anopheles stephensi (oocyst prevalence and intensity); format: in vivo, Plasmodium berghei; conditions: for Prevalence (proportion of infected mosquitoes), peptide: 50 µM peptide in gametocytaemic mouse blood fed to An. stephensi; for Intensity (mean number of oocysts, range in parentheses), peptide: 50 µM peptide, An. stephensi
Protocol: To assess the effects of AMPs on parasites in vivo, mouse blood containing P. berghei gametocytes was obtained by cardiac puncture and 475 µl was rapidly mixed with 25 µl (50 µM final concentration) of AMP. This mixture was fed to 100 nulliparous 3–5 day old female An. stephensi. A further 475 µl of blood from the same infection was mixed with 25 µl of distilled water to act as a control. Mosquitoes were maintained at 19°C for optimum parasite development. Between 30 and 50 mosquitoes were dissected after 10 days. Mosquito wing length, numbers of retained eggs and oocysts were recorded in triplicate experiments carried out on different mosquito cohorts.

[1] = tested on: An. gambiae (Mali strain); experiment: Mosquito oviposition after blood feed containing AMP; format: in vivo, Anopheles gambiae; conditions: for Significance of effect on oviposition: 50 µM AMP, one-way ANOVA, peptide vs control; for Mean no. of eggs laid per mosquito, peptide: after first feed with 50 µM AMP, eggs laid over two nights, averaged per surviving mosquito, 3 or 4 replicates
Protocol: (§1) Female An. gambiae (Mali strain, 3–5 days old) were used to establish the effects of AMPs on mosquito longevity and fecundity in the absence of confounding factors introduced with parasite infection. Two hundred 3–6 day old females were fed on human O+ whole blood supplemented with 50 µM AMP (or water control, 1 ml total volume) via feeding chambers of a Hemotek membrane feeding system. Fully engorged mosquitoes were randomly moved into four separate cages, each containing 25 mosquitoes, to facilitate monitoring. Mortality rates were recorded daily for a 10-day period, and oviposition sites were provided on the second and third night post-feeding. A second blood feed containing the same AMP was administered 7 days later to mimic the likelihood that mosquitoes would feed at least twice in the field during the development of sporogonic stages of the malaria parasite. Oviposition sites were again provided to assess fecundity through the number of eggs laid as an average per surviving mosquito. Assays for each AMP were repeated in triplicate on separate generations of mosquitoes. Due to egg retention under experimental conditions, egg production is best measured by dissecting mosquitoes that have not been provided with an oviposition site. However, this is not a feasible method of determining fecundity when longevity is also being measured.

[2] = tested on: An. gambiae (Mali strain); experiment: Mosquito longevity after blood feeds containing AMP; format: in vivo, Anopheles gambiae; conditions: for Significance of effect on longevity over 10 days: 50 µM AMP, Kaplan-Meier, Wilcoxon, peptide vs control; for Percent alive, peptide: over 10 days, 50 µM AMP in human blood, feeds on days 0 and 7, 3 or 4 replicates
Protocol: as §1

[3] = tested on: An. gambiae (Mali strain); experiment: as above; format: in vivo, Anopheles gambiae; conditions: 50 µM AMP in blood on days 0 and 7; extended to 30 days
P. falciparum = experiment: Field P. falciparum from gametocyte carriers membrane-fed to An. gambiae (Mali); format: in vivo, Plasmodium falciparum; conditions: 50 µM; for Oocyst prevalence (oocyst positive mosquitoes), peptide: blood of gametocyte carriers, progeny of field An. gambiae; for Oocyst intensity (mean number of oocysts per gut, range in parentheses), peptide: field parasites and mosquitoes
P. berghei ookinetes = experiment: P. berghei ookinete viability in vitro (erythrosin B); format: cell-based, Plasmodium berghei; conditions: 30 min; for Reduction in ookinete viability: versus control
Protocol: Our primary aim was to target parasites in mosquitoes before they cross the midgut wall, therefore AMPs were first assessed for their ability to kill ookinetes in vitro. […] Ookinete cultures of P. berghei were established from gametocytaemic blood as previously described. Parasites were enriched using cold 0.17M ammonium chloride after 18 h of culture and washed thoroughly with PBS (phosphate buffered saline). Parasites were seeded in triplicate wells of a 96-well microtitre plate at a density of 1×10^5/ml in a volume of 47.5 µl Schneider's insect medium (Invitrogen) with 2.5 µl of the test AMP (final concentration of 50 µM). Ookinetes were incubated for 30 min in conjunction with triplicate control wells containing medium with 2.5 µl of water instead of AMP. A sub-sample of parasites was then added to an equal volume of 5% erythrosin B to assess viability (150 ookinetes in total, taken from 3 wells). Each of the 33 AMPs was screened in this way and assays were performed 3 times. AMPs displaying a high degree of toxicity (>90% of ookinetes displaying erythrosin B staining) underwent further ookinete assays using a concentration of 100 µM AMP. To assess synergistic effects, combinations of two peptides were also tested at a concentration of 25 µM per AMP, in the assay described above.

[4] = 50 µM of single peptide, n = 150 ookinetes per treatment per replicate

| Sequence | Prevalence (proportion of infected mosquitoes), peptide (P. berghei; Replicate 1) | Intensity (mean number of oocysts, range in parentheses), peptide (P. berghei; Replicate 1) | Prevalence (proportion of infected mosquitoes), peptide (P. berghei; Replicate 2) | Intensity (mean number of oocysts, range in parentheses), peptide (P. berghei; Replicate 2) | Prevalence (proportion of infected mosquitoes), peptide (P. berghei; Replicate 3) | Intensity (mean number of oocysts, range in parentheses), peptide (P. berghei; Replicate 3) | Significance of effect on oviposition [1] | Mean no. of eggs laid per mosquito, peptide [1] | Significance of effect on longevity over 10 days [2] | Percent alive, peptide [2] | Effect on longevity over 30 days (in words) [3] | Oocyst prevalence (oocyst positive mosquitoes), peptide (P. falciparum; Replicate 1) | Oocyst intensity (mean number of oocysts per gut, range in parentheses), peptide (P. falciparum; Replicate 1) | Oocyst prevalence (oocyst positive mosquitoes), peptide (P. falciparum; Replicate 2) | Oocyst intensity (mean number of oocysts per gut, range in parentheses), peptide (P. falciparum; Replicate 2) | Average ookinete viability (3 reps), peptide (P. berghei ookinetes; [4]) | Reduction in ookinete viability (P. berghei ookinetes; 50 µM of single peptide) | other results |
| --- | --- | --- | --- | --- | --- | --- | --- | --- | --- | --- | --- | --- | --- | --- | --- | --- | --- | --- |
| AGYLLGKINLKALAALAKKILGGAGYLLGKINLKALAALAKKIL [TP10 dimer, TP10 (dimer)] | 56% (50) | 2 (0–84) | 66% (50) | 4 (0–67) | 56% (50) | 2 (0–13) | N/S | 25 | N/S | 76% | significant reduction in survivorship | 9% (58) | <1 (0–4) | 3% (38) | <1 (0–1) | 0% | 100% | Oocyst prevalence (oocyst positive mosquitoes), peptide (P. falciparum; Replicate 3): 20% (49); Oocyst intensity (mean number of oocysts per gut, range in parentheses), peptide (P. falciparum; Replicate 3): <1 (0–2) |
| KFPKFRRGIPFLFVGPSGKFPKFRRGIPFLFV [Vida 3 dimer] | 33% (40) | 1 (0–6) | 80% (50) | 37 (0–271) | 76% (50) | 4 (0–67) | N/S | 43 | N/S | 68% | no significant long-term effects on longevity | 3% (63) | <1 (0–1) | 0% (45) | 0 | 4% | 96% | Average ookinete viability (3 reps), peptide (P. berghei ookinetes; 100 µM of single peptide): 0%; Reduction in ookinete viability (P. berghei ookinetes; 100 µM of single peptide): 100%; Reduction in ookinete viability (P. berghei ookinetes; 100 µM of single peptide, listed as Vida3 dimer): 100% |
